From patent US6743810B2, “Indol-3-yl derivatives” (Merck Patent GmbH, priority 2000, dated 2004)
Counter-ions that a name gives are not always drawn.

melting point | SMILES
137 °C | O=C(O)C[C@@H](c1ccccc1)c1c[nH]c2cc(OCCCNc3ccccn3)ccc12 (as salt: salt) [compound 46, (3S)-3-Phenyl-3-{6-[3-(pyridin-2-ylamino)propoxy]indol-3-yl}propionic acid]
232 °C (dec.) | O=C(O)CC(c1ccccc1)c1c[nH]c2cc(OCCCNc3ccccn3)ccc12 (centres unmarked) (as salt: trifluoroacetate) [compound 8, 3-Phenyl-3-{6-[3-(pyridin-2-ylamino)propoxy]indol-3-yl}propionic acid]
